According to US8563053B2, “Compositions and methods of natural products in nanoformulations for the prevention and treatment of osteoporosis” (priority 2009, dated 2013):

Experiments:
postmenopausal women = test: Postmenopausal women with high versus low dietary intake / serum lycopene: oxidative stress and bone markers; assay type: in vivo, human; settings: women with higher serum lycopene
Description: Work of the inventors of the present invention, both experimental work and work with humans, provides evidence for a positive effect of the potent antioxidant “Lycopene” on bone health.

[1] = tested on: healthy postmenopausal women; test: Supplementation of healthy postmenopausal women with lycopene: oxidative stress and bone turnover markers; assay type: in vivo, human; settings: 30 mg/day for 6 months

CC(C)=CCC/C(C)=C/C=C/C(C)=C/C=C/C(C)=C/C=C/C=C(C)/C=C/C=C(C)/C=C/C=C(\C)CCC=C(C)C [lycopene]
bone formation markers (s-Osteocalcin and bone-specific ALP) (postmenopausal women): improve | bone resorption markers (u-NTX, s-CTX) (postmenopausal women): improve | oxidative stress (lipid and protein oxidation, catalase and superoxide dismutase activities) (postmenopausal women): reduced oxidative stress | s-BALP ([1]; bone formation marker): increases | s-OC ([1]; bone formation marker): increases | s-CTX ([1]; bone resorption marker): significant decreases | u-NTX ([1]; bone resorption marker): significant decreases | bone turnover markers ([1]; healthy postmenopausal women): significantly improved | oxidative stress ([1]; healthy postmenopausal women): significantly improved
